This passage reports DC50 results from US20230295197A1, “STAT5 and STAT6 Degraders and Uses Thereof” (REGENTS OF THE UNIVERSITY OF MICHICAN, priority 2022, published 2023).

Molecules are shown by their SMILES. Where two headings read alike, the source gives them in different places.

The experiment addresses T1, STAT6 (Homo sapiens, UniProt P42226).
T1 construct: endogenous in cells; host or cells: MOLM-16, KU-812, SKNO1, MB231, L1236
T1 sequence (P42226 1-847): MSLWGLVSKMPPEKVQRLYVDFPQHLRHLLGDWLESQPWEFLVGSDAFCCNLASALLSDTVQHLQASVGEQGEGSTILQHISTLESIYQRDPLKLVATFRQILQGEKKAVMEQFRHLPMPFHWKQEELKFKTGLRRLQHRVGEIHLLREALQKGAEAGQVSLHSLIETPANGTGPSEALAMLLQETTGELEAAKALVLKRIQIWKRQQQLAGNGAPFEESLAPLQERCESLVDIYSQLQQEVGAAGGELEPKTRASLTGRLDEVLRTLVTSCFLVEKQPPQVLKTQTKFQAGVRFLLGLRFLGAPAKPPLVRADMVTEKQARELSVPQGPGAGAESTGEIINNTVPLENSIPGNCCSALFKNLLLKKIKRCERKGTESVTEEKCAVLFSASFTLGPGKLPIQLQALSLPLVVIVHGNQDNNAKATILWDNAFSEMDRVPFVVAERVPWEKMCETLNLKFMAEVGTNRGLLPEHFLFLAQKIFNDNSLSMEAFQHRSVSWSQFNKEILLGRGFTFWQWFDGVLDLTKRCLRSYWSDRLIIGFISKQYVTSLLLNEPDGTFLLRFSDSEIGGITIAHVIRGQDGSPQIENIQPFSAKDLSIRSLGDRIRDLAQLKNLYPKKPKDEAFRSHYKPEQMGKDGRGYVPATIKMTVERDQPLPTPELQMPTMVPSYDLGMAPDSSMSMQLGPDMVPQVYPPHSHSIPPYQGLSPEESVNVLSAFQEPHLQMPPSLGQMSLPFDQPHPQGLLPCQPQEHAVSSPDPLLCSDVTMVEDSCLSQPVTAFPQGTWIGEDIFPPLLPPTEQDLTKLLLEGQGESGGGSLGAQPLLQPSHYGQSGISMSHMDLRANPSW
Nature of the experiment: Immunoblotting (Western blot) analysis of STAT6 degradation efficiency of degraders in treated cells. It counts as cell-based. A digest of the protocol: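 Read-out: fluorescent IRDye 680RD/800CW secondaries imaged on an infrared scanner, with band intensities quantified by densitometry and GAPDH serving as loading control. Samples were RIPA lysates, BCA-normalised, from ~1 million treated cells.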
(In general: In western blotting, separated proteins are transferred to a membrane and probed.)

Setting [1] is: L1236 cells, read-out: DC50 S6 L1236.
Where [2] appears, read: MOLM-16 cells, class symbols, read-out: DC50 S6 MOLM-16.

The term DC50 denotes the midpoint of the concentration-degradation curve. On to `Cc1ncsc1-c1ccc([C@H](C)NC(=O)[C@@H]2C[C@@H](O)CN2C(=O)[C@@H](NC(=O)CCCCCCCCNC(=O)COc2ccc3c(c2)CN(C(=O)[C@@H](NC(=O)c2cc4cc(C(F)(F)P(=O)(O)O)ccc4s2)C(C)(C)C)[C@H](C(=O)N2CCO[C@H](c4ccccc4)C2)C3)C(C)(C)C)cc1` [Compound 468, (difluoro(2-(((S)-1-((S)-7-(2-((9-(((S)-1-((2S,4R)-4-hydroxy-2-(((S)-1-(4-(4-methylthiazol-5-yl)phenyl)ethyl)carbamoyl)pyrrolidin-1-yl)-3,3-dimethyl-1-oxobutan-2-yl)amino)-9-oxononyl)amino)-2-oxoethoxy)-3-((R)-2-phenylmorpholine-4-carbonyl)-3,4-dihydroisoquinolin-2(1H)-yl)-3,3-dimethyl-1-oxobutan-2-yl)carbamoyl)benzo[b]thiophen-5-yl)methyl)phosphonic acid], for which the DC50 was greater than 10 µM under setting [1] and greater than 10 µM under setting [2].

Regarding `CC(C)(C)[C@H](NC(=O)c1cc2cc(C(F)(F)P(=O)(O)O)ccc2s1)C(=O)N1C[C@@H](OCC(=O)NCCCCCCCCCC#Cc2ccc3c(c2)C(=O)N(C2CCC(=O)NC2=O)C3=O)C[C@H]1C(=O)N1CCC[C@H](c2ccccc2)C1` (stereo partly drawn) [Compound 506, ((2-(((2S)-1-((2S,4S)-4-(2-((11-(2-(2,6-dioxopiperidin-3-yl)-1,3-dioxoisoindolin-5-yl)undec-10-yn-1-yl)amino)-2-oxoethoxy)-2-((R)-3-phenylpiperidine-1-carbonyl)pyrrolidin-1-yl)-3,3-dimethyl-1-oxobutan-2-yl)carbamoyl)benzo[b]thiophen-5-yl)difluoromethyl)phosphonic acid], under setting [2], the DC50 was greater than 10 µM.

For `CC(C)(C)[C@H](NC(=O)c1cc2cc(C(F)(F)P(=O)(O)O)ccc2s1)C(=O)N1Cc2cc(OCC(=O)NCCCCCCCCCC#Cc3cccc4c3C(=O)N(C3CCC(=O)NC3=O)C4=O)ccc2C[C@H]1C(=O)N1CCC[C@H](c2ccccc2)C1` (stereo partly drawn) [Compound 561, ((2-(((2S)-1-((3S)-7-(2-((11-(2-(2,6-dioxopiperidin-3-yl)-1,3-dioxoisoindolin-4-yl)undec-10-yn-1-yl)amino)-2-oxoethoxy)-3-((R)-3-phenylpiperidine-1-carbonyl)-3,4-dihydroisoquinolin-2(1H)-yl)-3,3-dimethyl-1-oxobutan-2-yl)carbamoyl)benzo[b]thiophen-5-yl)difluoromethyl)phosphonic acid], the DC50 under setting [2] is greater than 10 µM.

For the molecule `Cc1ncsc1-c1ccc([C@H](CC(=O)NCCOCCOCCOCCC(=O)N[C@H]2C[C@@H](C(=O)N3CCO[C@H](c4ccccc4)C3)N(C(=O)[C@@H](NC(=O)c3cc4cc(C(F)(F)P(=O)(O)O)ccc4s3)C(C)(C)C)C2)NC(=O)[C@@H]2C[C@@H](O)CN2C(=O)[C@@H](NC(=O)C2(F)CC2)C(C)(C)C)cc1` [Compound 573, (difluoro(2-(((S)-1-((2S,4S)-4-((S)-1-((2S,4R)-1-((S)-2-(1-fluorocyclopropane-1-carboxamido)-3,3-dimethylbutanoyl)-4-hydroxypyrrolidin-2-yl)-3-(4-(4-methylthiazol-5-yl)phenyl)-1,5-dioxo-9,12,15-trioxa-2,6-diazaoctadecan-18-amido)-2-((R)-2-phenylmorpholine-4-carbonyl)pyrrolidin-1-yl)-3,3-dimethyl-1-oxobutan-2-yl)carbamoyl)benzo[b]thiophen-5-yl)methyl)phosphonic acid], the DC50 under setting [2] is greater than 10 µM.

In the case of `Cc1ncsc1-c1ccc([C@H](C)NC(=O)[C@@H]2C[C@@H](O)CN2C(=O)[C@@H](NC(=O)CCCCCCNC(=O)CO[C@H]2C[C@@H](C(=O)N3CCC[C@H](c4ccccc4)C3)N(C(=O)[C@@H](NC(=O)c3cc4cc(C(F)(F)P(=O)(O)O)ccc4s3)C(C)(C)C)C2)C(C)(C)C)cc1` [Compound 439, (difluoro(2-(((S)-1-((2S,4S)-4-(2-((7-(((S)-1-((2S,4R)-4-hydroxy-2-(((S)-1-(4-(4-methylthiazol-5-yl)phenyl)ethyl)carbamoyl)pyrrolidin-1-yl)-3,3-dimethyl-1-oxobutan-2-yl)amino)-7-oxoheptyl)amino)-2-oxoethoxy)-2-((R)-3-phenylpiperidine-1-carbonyl)pyrrolidin-1-yl)-3,3-dimethyl-1-oxobutan-2-yl)carbamoyl)benzo[b]thiophen-5-yl)methyl)phosphonic acid], the DC50 is, setting by setting: under setting [1], greater than 10 µM; under setting [2], greater than 10 µM.

Consider `CC(C)(C)[C@H](NC(=O)c1cc2cc(C(F)(F)P(=O)(O)O)ccc2s1)C(=O)N1Cc2cc(OCC(=O)NCCCCC#Cc3cccc4c3C(=O)N(C3CCC(=O)NC3=O)C4=O)ccc2C[C@H]1C(=O)N1CCO[C@H](c2ccccc2)C1` (stereo partly drawn) [Compound 541, ((2-(((2S)-1-((3S)-7-(2-((6-(2-(2,6-dioxopiperidin-3-yl)-1,3-dioxoisoindolin-4-yl)hex-5-yn-1-yl)amino)-2-oxoethoxy)-3-((R)-2-phenylmorpholine-4-carbonyl)-3,4-dihydroisoquinolin-2(1H)-yl)-3,3-dimethyl-1-oxobutan-2-yl)carbamoyl)benzo[b]thiophen-5-yl)difluoromethyl)phosphonic acid], for which, under setting [2], the DC50 was greater than 10 µM.

For the molecule `CC(C)(C)[C@H](NC(=O)c1cc2cc(C(F)(F)P(=O)(O)O)ccc2s1)C(=O)N1Cc2cc(OCC(=O)NCC#Cc3ccc4c(c3)C(=O)N(C3CCC(=O)NC3=O)C4=O)ccc2C[C@H]1C(=O)N1CCC[C@H](c2ccccc2)C1` (stereo partly drawn) [Compound 550, ((2-(((2S)-1-((3S)-7-(2-((3-(2-(2,6-dioxopiperidin-3-yl)-1,3-dioxoisoindolin-5-yl)prop-2-yn-1-yl)amino)-2-oxoethoxy)-3-((R)-3-phenylpiperidine-1-carbonyl)-3,4-dihydroisoquinolin-2(1H)-yl)-3,3-dimethyl-1-oxobutan-2-yl)carbamoyl)benzo[b]thiophen-5-yl)difluoromethyl)phosphonic acid], the DC50 under setting [2] was greater than 10 µM.

For `CC(C)(C)[C@H](NC(=O)c1cc2cc(C(F)(F)P(=O)(O)O)ccc2s1)C(=O)N1Cc2cc(OCC(=O)NCCC#Cc3ccc4c(c3)C(=O)N(C3CCC(=O)NC3=O)C4=O)ccc2C[C@H]1C(=O)N1CCO[C@H](c2ccccc2)C1` (stereo partly drawn) [Compound 538, ((2-(((2S)-1-((3S)-7-(2-((4-(2-(2,6-dioxopiperidin-3-yl)-1,3-dioxoisoindolin-5-yl)but-3-yn-1-yl)amino)-2-oxoethoxy)-3-((R)-2-phenylmorpholine-4-carbonyl)-3,4-dihydroisoquinolin-2(1H)-yl)-3,3-dimethyl-1-oxobutan-2-yl)carbamoyl)benzo[b]thiophen-5-yl)difluoromethyl)phosphonic acid], the DC50 under setting [2] was greater than 10 µM.

On to `Cc1ncsc1-c1ccc([C@H](C)NC(=O)[C@@H]2C[C@@H](O)CN2C(=O)[C@@H](NC(=O)CCCCCCCCNC(=O)CC(=O)N2CCN(C(=O)[C@@H](NC(=O)c3cc4cc(C(F)(F)P(=O)(O)O)ccc4s3)C(C)(C)C)[C@H](C(=O)N3CCO[C@H](c4ccccc4)C3)C2)C(C)(C)C)cc1` [Compound 450, (difluoro(2-(((S)-1-((S)-4-(3-((9-(((S)-1-((2S,4R)-4-hydroxy-2-(((S)-1-(4-(4-methylthiazol-5-yl)phenyl)ethyl)carbamoyl)pyrrolidin-1-yl)-3,3-dimethyl-1-oxobutan-2-yl)amino)-9-oxononyl)amino)-3-oxopropanoyl)-2-((R)-2-phenylmorpholine-4-carbonyl)piperazin-1-yl)-3,3-dimethyl-1-oxobutan-2-yl)carbamoyl)benzo[b]thiophen-5-yl)methyl)phosphonic acid], for which the DC50 under setting [1] was greater than 10 µM and the DC50 under setting [2] was greater than 10 µM.

As to `CC(C)(C)[C@H](NC(=O)c1cc2cc(C(F)(F)P(=O)(O)O)ccc2s1)C(=O)N1CCN(C(=O)CC(=O)NCCCCC#Cc2ccc3c(c2)C(=O)N(C2CCC(=O)NC2=O)C3=O)C[C@H]1C(=O)N1CCC[C@H](c2ccccc2)C1` (stereo partly drawn) [Compound 528, ((2-(((2S)-1-((2S)-4-(3-((6-(2-(2,6-dioxopiperidin-3-yl)-1,3-dioxoisoindolin-5-yl)hex-5-yn-1-yl)amino)-3-oxopropanoyl)-2-((R)-3-phenylpiperidine-1-carbonyl)piperazin-1-yl)-3,3-dimethyl-1-oxobutan-2-yl)carbamoyl)benzo[b]thiophen-5-yl)difluoromethyl)phosphonic acid], the 50% degradation concentration (DC50) under setting [2] is greater than 10 µM.
